Results: patent US10583115B2, “Modulators of 14-3-3 functionality and uses thereof” (University of South Australia, priority 2014, dated 2020)
“Also recorded” adds a separate entry of the source.

Key:
recombinant 14-3-3ζ [1] = biological target: T1, recombinant 14-3-3ζ (Homo sapiens, UniProt P63104); assay: 14-3-3 phosphorylation assay (PKA, in vitro); assay type: biochemical
T1 construct: 0.5 μg of purified recombinant 14-3-3
T1 sequence (P63104 1-245): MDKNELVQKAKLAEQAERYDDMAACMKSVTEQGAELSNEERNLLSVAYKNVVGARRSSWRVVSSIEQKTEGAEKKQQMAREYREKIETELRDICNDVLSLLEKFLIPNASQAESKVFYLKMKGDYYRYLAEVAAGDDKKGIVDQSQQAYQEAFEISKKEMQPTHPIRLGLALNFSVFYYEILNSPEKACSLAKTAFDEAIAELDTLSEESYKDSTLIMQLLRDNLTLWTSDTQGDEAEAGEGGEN
Procedure: (§1) Substrate 14-3-3 (0.5 μg of purified recombinant 14-3-3) was added to 15 μl reaction mixture comprising 0.2 U of the PKA catalytic subunit, in the presence or absence of compounds (delivered in 0.1% v/v ethanol) in PKA reaction buffer (10 mM Tris-HCl pH 7.4, 15 mM MgCl2, 3 mM DTT) containing 25 μM ATP and 0.3 μCi [^32P] 7-ATP). Reactions were incubated at 37° C. for 15 min. After incubation, reactions were separated on 12.5% SDS-PAGE, coomassie stained and 14-3-3 phosphorylation analysed by autoradiography.

recombinant 14-3-3ζ [2] = assay: 14-3-3 phosphorylation assay (PKA, in vitro); assay type: biochemical; conditions: S58A versus Wt recombinant 14-3-3
Procedure: as §1

Jurkat cells = assay: Jurkat apoptosis assays (TMRE, caspase 3, Annexin V, viability by flow cytometry); assay type: cell-based
Procedure: (§2) Jurkat cells were routinely set up in apoptosis assays at 2×10^5/ml in RPMI with 0.5% FBS. After treatment, cells were stained either with 200 nM TMRE, 5 μl/ml NucView™ (Biotium), or Annexin V-FITC (Roche) for 15 mins prior to analysis by flow cytometry. Forward- and side-scatter properties were used to exclude debris and a ‘viable’ gate corresponding to the intact, PI negative cell population was used for fluorescence analysis. For A549, cells at 90% confluency were treated with RB compounds for 48 hrs in DMEM with 0.5% FBS. After treatment, cells were released with trypsin and then stained with NucView™ prior to analysis by flow cytometry.

[3] = tested on: Jurkat cells over-expressing Bcl-2; assay: Apoptosis assays in Jurkat cells over-expressing Bcl-2; assay type: cell-based; conditions: 5 μM, 20 hours
Procedure: Jurkat cells were obtained from the ATCC and A549 cell lines from ECACC. Jurkat cells were routinely cultured in RPMI with 10% FBS and A549 cells in DMEM with 10% FBS at 37° C. with 5% CO2 Jurkat Bcl-2 cells were generated by lentiviral transduction using a third generation lentiviral construct, as described previously (10) containing a Bcl-2α-IRES-IL2Rα encoding cassette. Transduced cells were FACS sorted for expression of IL2Rα using anti-CD25-PE (BD Pharmingen #555433) to enrich for Bcl-2 over-expressing cells and protein expression was further confirmed by immunoblotting with anti-Bcl-2 antibody (#610538; BD Transduction Laboratories, data not shown).
as §2

[4] = reported value; cited from earlier work
A549 xenograft = A549 xenograft study; assay type: in vivo, BALB/c nude mice
Procedure: All experimental procedures involving animals were conducted in accordance with the NHMRC Australian Code for the Care and Use of Animals for Scientific Purposes and with approval by the institutional animal ethics committee. BALB/c nude mice (Nu/Nu, female, 5-6 weeks old) were purchased from the Animal Resources Centre (Perth, Wash.) and maintained under pathogen-free conditions. A549 cells (5×106) in 100 μl PBS were injected subcutaneously into the flanks of the mice and the resulting tumour were measured using digital callipers. The tumour volume was calculated using the following formula: Volume=(larger diameter)×(small diameter)2/2. Once the tumours had reached 100 mm3, mice were divided into groups of 9 and each group administered either RB-012 in saline, FTY720 in saline or saline alone by intraperitoneal injection daily. Initially RB-12 and FTY720 were administered at 2 mg/kg for two days and then the dose was increased to 5 mg/kg for two weeks after which RB-012 was increased to 10 mg/kg but FTY720 maintained at 5 mg/kg. During this dosing regime tumours were monitored twice a week. Differences between samples were analysed using 2 way Anova and statistical significance was accepted at P<0.05.
To assess the effect of RB-012 on human lung cancer growth in vivo, A549 cells were implanted subcutaneously on the flanks of Balb/C nude mice and tumours allowed to develop until they had reached a volume of 100 mm^3. RB-012 or saline was then administered daily to assess the effect on tumour growth. Initially, to reduce the cramping and encourage tolerance, 2 mg/kg RB-012 was administered for two days and then the dose was increased to 5 mg/kg daily for two weeks. Tumour volume was monitored twice a week and after two weeks of treatment mice administered RB-012 had tumours that were 20% smaller than mice receiving saline. […] The tumours on the RB-012 treated mice continued to grow more slowly and after the third week were 30% smaller than those of saline-treated mice (P<0.05). […] Therefore we were unable to increase FTY720 dosing to match RB-012.

A549 cells [5] = assay: A549 cell viability by MTS assay; assay type: cell-based, human; conditions: 48 hrs treatment
Procedure: A549 cells (2500/well) were plated in 96 well trays in DMEM with 0.5% FBS and cultured at 37° C. with 5% CO2 overnight. The following day RB compounds were added and cells incubated for a further 48 hours prior to removal of the medium and replacement with MTS reagent diluted 1:6 in Dulbecco's PBS. The cells were incubated at 37° C. for a further 4 hours and the conversion of MTS to the coloured formazan compound determined by measurement of absorbance at 490 nm.

A549 cells [6] = assay: A549 caspase-3 activation (NucView, flow cytometry); assay type: cell-based, human; conditions: 48 hrs treatment
Procedure: as §2

[7] = tested on: incisional wounds of dorsal skin; assay: Incisional wound healing model; assay type: in vivo, mice
Procedure: A murine model of wound healing was utilised. In this model, 2×1 cm full thickness wounds were created in the dorsal skin. Wound healing was monitored using cohorts of mice humanely killed at 3, 5, 7 and 14 days post-wounding. Re-epithelialization was quantified histologically, by measuring the distance between epithelial margins sectioned in the transverse plane (Ansell D. M. et al. (2014) Wound Rep Reg 22: 281-287).
Incisional wounding was carried out as we have previously detailed (Lees et al. (2013) The Journal of investigative dermatology 133, 1330-1339). Briefly, two full-thickness 1 cm incisions were created on the dorsal skin of 12 week old female mice and allowed to heal. RB-11 (10 μg per mouse), 4-hydroxytamoxifen (50 μg per mouse) or vehicle was applied in a total volume of 20 μl to the edge of each wound using a micropipette and allowed to absorb into the skin. At the appropriate time point (2, 5, 7, 14 and 21 days) following incisional wounding, mice were humanely killed and tissues harvested. From each mouse, one wound was completed excised and fixed in 4% formalin overnight at 4° C. Following fixation, the wound was carefully bisected at the middle across the wound, processed and embedded in paraffin for histological and immunofluorescence analysis. Wound widths were measured on scanned images of H&E stained sections using NDPView slide scanning and image quantification software. The remaining wound was bisected across the wound, snap-frozen and processed for gene expression analysis.
14-3-3ζ-deficient and wild-type mice were subjected to the incisional wounding protocol followed by treatment with vehicle or RB-11 (5× daily topical treatments of 11.5 μg). […] Slides were optically scanned using a Nanozoomer slide scanner (Hamamatsu, Japan) and the wound gap measured using Imagescope software (Leica Biosystems, Germany). Values were plotted on a box and whisker plot and statistical significant assessed using the Mann-Whitney test together with Dunnett's post hoc test.

WT dermal fibroblasts = assay: Collagen remodeling assay and cell morphology, wild-type dermal fibroblasts; assay type: cell-based, mice; conditions: 10 μM
Procedure: (§3) Rat-tail tendon collagen was prepared by extraction with 0.5 M acetic acid to a concentration of ˜2 mg/ml. 8×10^4 cells/ml WT or 14-3-3ζ KO dermal fibroblasts (labeled with either eGFP or mCherry) were embedded in this three-dimensional collagen 1 matrix and incubated in DMEM with 10% FCS and 10 mM L-Glutamine at 37° C. and 5% CO2. Detached polymerized matrix (2.5 ml) was allowed to contract for 11 days. During contraction, matrices were either left untreated or incubated with 10 μM RB-11. Media was changed on day 1 and on day 6. To calculate contraction rates and obtain information on cell morphology matrices were imaged every second day in phase contrast on a Leica DMIL LED inverted microscope with either a 4×/NA0.10 HI PLAN or a 10×/NA0.22 HI PLAN I air objective.
(§4) Measuring the mean diameter of three matrices and normalizing the diameter to day 1 determined contraction rates. Cell morphology was described by manually counting the number of cell protrusions/cell and the number of blebbing cells.
To determine the circularity of cells images were processed in ImageJ (NIH) according to following routine. Images were converted to 8 Bit images and cropped to an image size equivalent to […]. Grey values were thresholded to select cells. The ‘analyze particles’ function was used to determine circularity of cells. Circularity values range from 0 to 1 with ‘0’ representing rod-shaped cells and ‘1’ representing perfectly circular cells.
10^6 14-3-3ζ-deficient or wild-type dermal fibroblasts were embedded in 2 mg/mL % rat tail collagen plugs made with or without 10 μM RB-11. The plugs were maintained in DMEM containing 10% foetal bovine serum in a humidified incubator at 37° C. Collagen plugs were photographed on days 2, 6 and 12 and the area of the image occupied by the collage plug measured.

[8] = tested on: 14-3-3ζ KO dermal fibroblasts; assay: Collagen remodeling assay and cell morphology, 14-3-3ζ KO dermal fibroblasts; assay type: cell-based, mice; conditions: 10 μM
Procedure: as §3, §4
To determine the circularity of cells images were processed in ImageJ (NIH) according to following routine. […]
10^6 14-3-3ζ-deficient or wild-type dermal fibroblasts were embedded in 2 mg/mL % rat tail collagen plugs made with or without 10 μM RB-11. […] Collagen plugs were photographed on days 2, 6 and 12 and the area of the image occupied by the collage plug measured.

Structure (SMILES): CCCCCCCCCCCCCCCC[N+](C)(C)C.[Br-] [CTAB, cetyltrimethylammonium bromide]
- concentration above which 14-3-3 phosphorylation plateaus (recombinant 14-3-3ζ [1]; dose-response study): above 25 μM
- concentrations able to induce 14-3-3 phosphorylation (recombinant 14-3-3ζ [1]; dose-response study): low micromolar concentrations
- concentration above which phosphorylation of 14-3-3 increased dramatically (recombinant 14-3-3ζ [1]; potentially non-specific protein denaturation): above 75 μM
- rendering 14-3-3 phosphorylatable (phosphorylation of 14-3-3 by PKA in vitro) (recombinant 14-3-3ζ [1]; recombinant 14-3-3 and PKA catalytic subunit): dose-dependent increase in 14-3-3 phosphorylation
- phosphorylation site of 14-3-3ζ revealed (recombinant 14-3-3ζ [2]): Ser58
- caspase-3 activation (Jurkat cells; 5 μM, 20 hours): induce caspase-3 activation
- cell death in Bcl-2 over-expressing cells [3]: protected from CTAB-induced cell death
- critical micelle concentration [4]: 0.92 mM

Structure (SMILES): CCCCCCCCc1ccc(CCC(N)(CO)CO)cc1 [FTY720]
- tumour size versus saline (A549 xenograft; 5 mg/kg daily i.p.): no reduction in tumour size; also recorded: did not elicit a reduction in tumour growth
- adverse effects at 10 mg/kg (A549 xenograft; 10 mg/kg): severe cramping with cardiac arrhythmia, with fatality in some cases
- tolerability at 10 mg/kg (A549 xenograft; mouse, in vivo): not tolerated

Structure (SMILES): CCCCCCCCc1ccc(CC[N+]2(C)CCCC2)cc1 [RB-011]
- ED50 for apoptosis induction, in words (Jurkat cells): low micromolar range
- Annexin V presentation (Jurkat cells; 5 μM, 24 hours): Annexin V presentation
- cell viability (Jurkat cells; 5 μM, 24 hours): loss of viability
- apoptosis as determined by caspase-3 activation (Jurkat cells; 5 μM, within 5 hours): readily able to activate apoptosis
- EC50 (Jurkat cells; Homo sapiens, Jurkat, 5 h, read-out: ED50 for apoptosis induction (initial activation of caspase-3)): 2 µM
- cell viability / growth and survival (MTS), in words (A549 cells [5]): inhibited
- IC50 (A549 cells [5]; Homo sapiens, A549): 7 µM
- caspase-3 activation (A549 cells [6]): induce caspase activation
- rate of re-epithelialization ([7]; WT mice, topical 10 μg [25 nmol] once daily for 7 days): increased the rate of re-epithelialization
- collagen production around wound margins (SHG) ([7]; WT mice, topical 10 μg once daily for 7 days): elevated collagen production
- wound healing (wound width) ([7]; wild-type mice, 5× daily topical treatments of 11.5 μg, day 5 following wounding): hastened wound healing
- cell morphology by circularity analysis (WT dermal fibroblasts): rounded morphology
- cell morphology in 3D collagen organotypic matrices (live-cell imaging) (WT dermal fibroblasts): contracted morphology
- collagen remodeling ability (contraction of collagen plug/matrix) (WT dermal fibroblasts; listed as RB-11): unable to remodel the collagen plug; also recorded: significantly reduced collagen remodeling ability
- cell morphology by circularity analysis [8]: no further change in the morphology
- ability to remodel a collagen plug ([8]; compared to wild type fibroblasts): reduced ability to remodel a collagen plug
